# Patent US20180235949A1 (priority 2015, published 2018)
# Read-outs that look alike come from different tables or passages of the source.
# How the values were obtained:
# μ (MOP) (h) [1] = biological target: T1, μ (MOP) (h) (Homo sapiens, UniProt P35372); format: cell-based
# α2B (h) [2] = biological target: T2, α2B (h) (Homo sapiens, UniProt P18089); assay: α2B (h) (antagonist effect) cellular functional assay; format: cell-based
# T2 sequence (P18089 1-450): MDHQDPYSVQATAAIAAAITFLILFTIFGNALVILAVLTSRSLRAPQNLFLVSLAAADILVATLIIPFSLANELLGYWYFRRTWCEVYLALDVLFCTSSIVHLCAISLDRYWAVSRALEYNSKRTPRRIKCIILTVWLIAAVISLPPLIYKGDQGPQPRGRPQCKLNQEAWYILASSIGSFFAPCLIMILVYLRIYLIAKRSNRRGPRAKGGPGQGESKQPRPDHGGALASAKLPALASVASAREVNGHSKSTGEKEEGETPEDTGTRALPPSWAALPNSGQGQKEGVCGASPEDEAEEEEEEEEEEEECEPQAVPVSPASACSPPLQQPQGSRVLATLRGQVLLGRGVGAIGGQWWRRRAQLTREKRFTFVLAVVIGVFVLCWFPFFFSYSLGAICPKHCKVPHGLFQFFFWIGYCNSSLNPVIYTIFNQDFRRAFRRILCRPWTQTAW
# Protocol: (§1) Representative compounds were tested to determine IC50 or EC50 in receptor functional assays. One or more of the procedures disclosed in the following references were used: Devedjian, J. C. et al., Eur. J. Pharmacol., 1994, 252, 43-49; Wang, J. B. et al., FEBS Lett., 1994, 338, 217-222; Simonin, F. et al., Mol. Pharmacol., 1994, 46, 1015-1021; Meng, F. et al., Proc. Natl. Acad. Sci. U.S.A., 1993, 90, 9954-9958; Avidor-Reiss, T. et al., FEBS Lett., 1995, 361, 70-74; Eason, M. G. et al., J. Biol. Chem., 1992, 267, 15795-15801; Law, P. Y. et al., Mol. Pharmacol., 1993, 43, 684-693. In each experiment and if applicable, the respective reference compound was tested concurrently with the test compounds. Compound binding was calculated as a % inhibition of the binding of a radioactively labeled ligand specific for each target. Cellular agonist effect was calculated as a % of control response to a known reference agonist for each target and cellular antagonist effect was calculated as a % inhibition of control reference agonist response for each target. Only the calculable IC50 and EC50 are reported below.
# α2B (h) [3] = biological target: T2, α2B (h); assay: α2B (h) (antagonist radioligand) binding; conditions: for nH: α2B (h) (antagonist radioligand)
# Protocol: as §1
# κ (KOP) = κ (KOP) (Rattus norvegicus, UniProt P34975); format: binding
# κ (KOP), sequence (P34975 whole entry): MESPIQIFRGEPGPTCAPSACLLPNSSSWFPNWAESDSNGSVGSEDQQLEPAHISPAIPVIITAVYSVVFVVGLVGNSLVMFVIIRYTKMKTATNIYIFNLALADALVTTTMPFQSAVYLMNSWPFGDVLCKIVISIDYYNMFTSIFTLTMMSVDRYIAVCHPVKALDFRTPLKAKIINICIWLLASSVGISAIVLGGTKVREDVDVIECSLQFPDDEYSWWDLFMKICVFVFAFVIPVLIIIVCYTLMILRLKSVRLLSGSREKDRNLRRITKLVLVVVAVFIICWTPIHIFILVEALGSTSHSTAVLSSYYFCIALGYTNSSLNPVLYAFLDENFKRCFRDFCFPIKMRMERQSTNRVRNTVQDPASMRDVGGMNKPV
# CYP2B6 [4] = conditions: human hepatocytes, 72 hr, at 100 μM
# CYP2C9 = CYP2C9 (Homo sapiens, UniProt P11712); assay: CYP2C9 inhibition, human liver microsomes (tolbutamide); conditions: 0.1-25 μM
# CYP2C9, sequence (P11712 whole entry): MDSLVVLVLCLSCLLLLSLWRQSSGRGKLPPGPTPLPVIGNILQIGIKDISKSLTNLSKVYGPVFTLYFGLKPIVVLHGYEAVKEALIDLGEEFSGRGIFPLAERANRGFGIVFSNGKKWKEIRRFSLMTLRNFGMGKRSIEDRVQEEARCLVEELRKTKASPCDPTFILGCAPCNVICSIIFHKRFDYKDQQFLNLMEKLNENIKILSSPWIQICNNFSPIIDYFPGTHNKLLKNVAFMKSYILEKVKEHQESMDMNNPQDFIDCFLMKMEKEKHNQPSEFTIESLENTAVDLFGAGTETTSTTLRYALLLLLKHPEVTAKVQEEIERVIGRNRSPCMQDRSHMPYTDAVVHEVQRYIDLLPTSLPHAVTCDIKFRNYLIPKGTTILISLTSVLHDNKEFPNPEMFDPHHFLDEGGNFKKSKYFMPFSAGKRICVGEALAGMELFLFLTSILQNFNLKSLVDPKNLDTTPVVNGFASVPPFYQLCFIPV
# CYP1A2 [5] = biological target: CYP1A2 (Homo sapiens, UniProt P05177); conditions: 0.1-25 μM, human liver microsomes, phenacetin
# CYP1A2 (Homo sapiens, UniProt P05177), sequence (P05177 whole entry): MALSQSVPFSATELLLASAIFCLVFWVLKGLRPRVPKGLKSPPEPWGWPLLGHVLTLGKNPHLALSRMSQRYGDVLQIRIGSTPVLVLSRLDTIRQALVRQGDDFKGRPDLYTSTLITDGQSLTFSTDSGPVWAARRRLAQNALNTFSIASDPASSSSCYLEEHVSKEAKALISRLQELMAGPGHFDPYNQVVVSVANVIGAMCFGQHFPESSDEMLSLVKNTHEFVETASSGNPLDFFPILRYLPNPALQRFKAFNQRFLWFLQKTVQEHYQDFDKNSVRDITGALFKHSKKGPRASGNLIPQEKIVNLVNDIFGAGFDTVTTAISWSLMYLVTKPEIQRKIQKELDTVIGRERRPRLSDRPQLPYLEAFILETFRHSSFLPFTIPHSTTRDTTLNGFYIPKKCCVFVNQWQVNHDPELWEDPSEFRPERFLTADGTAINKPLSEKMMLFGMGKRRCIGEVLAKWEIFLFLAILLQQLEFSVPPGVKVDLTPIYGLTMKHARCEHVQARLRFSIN
# CYP2C8 = CYP2C8 (Homo sapiens, UniProt P10632); assay: CYP2C8 inhibition, human liver microsomes (paclitaxel); conditions: 0.1-25 μM
# CYP3A4 [6] = biological target: T3, CYP3A4 (Homo sapiens, UniProt P08684); conditions: 0.1-25 μM, human liver microsomes, substrate testosterone
# T3 sequence (P08684 whole entry): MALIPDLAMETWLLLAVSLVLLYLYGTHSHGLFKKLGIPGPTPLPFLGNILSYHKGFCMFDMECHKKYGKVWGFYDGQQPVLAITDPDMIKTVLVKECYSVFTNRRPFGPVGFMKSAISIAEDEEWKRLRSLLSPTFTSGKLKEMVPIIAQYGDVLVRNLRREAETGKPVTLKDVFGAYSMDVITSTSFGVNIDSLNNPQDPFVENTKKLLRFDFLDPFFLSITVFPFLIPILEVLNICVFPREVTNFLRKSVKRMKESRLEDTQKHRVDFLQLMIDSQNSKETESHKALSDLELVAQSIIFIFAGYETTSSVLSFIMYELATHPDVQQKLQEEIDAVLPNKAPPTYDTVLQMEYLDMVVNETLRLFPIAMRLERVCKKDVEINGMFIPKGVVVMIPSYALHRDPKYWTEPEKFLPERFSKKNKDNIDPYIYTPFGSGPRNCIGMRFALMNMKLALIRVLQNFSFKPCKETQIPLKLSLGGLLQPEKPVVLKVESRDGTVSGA
# CYP1A2 [7] = conditions: human hepatocytes, 72 hr, any concentration tested
# [8] = Bioavailability and stability evaluation; conditions: summary
# [9] = tested on: L-DOPA induced dyskinesias; assay: L-DOPA induced dyskinesias, Rodent in vivo model
# [10] = Binding to plasma proteins; format: in vitro ADME; conditions: very small species differences
# CYP2B6 [11] = biological target: CYP2B6 (Homo sapiens, UniProt P20813); conditions: 0.1-25 μM, human liver microsomes, bupropion
# CYP2B6 (Homo sapiens, UniProt P20813), sequence (P20813 whole entry): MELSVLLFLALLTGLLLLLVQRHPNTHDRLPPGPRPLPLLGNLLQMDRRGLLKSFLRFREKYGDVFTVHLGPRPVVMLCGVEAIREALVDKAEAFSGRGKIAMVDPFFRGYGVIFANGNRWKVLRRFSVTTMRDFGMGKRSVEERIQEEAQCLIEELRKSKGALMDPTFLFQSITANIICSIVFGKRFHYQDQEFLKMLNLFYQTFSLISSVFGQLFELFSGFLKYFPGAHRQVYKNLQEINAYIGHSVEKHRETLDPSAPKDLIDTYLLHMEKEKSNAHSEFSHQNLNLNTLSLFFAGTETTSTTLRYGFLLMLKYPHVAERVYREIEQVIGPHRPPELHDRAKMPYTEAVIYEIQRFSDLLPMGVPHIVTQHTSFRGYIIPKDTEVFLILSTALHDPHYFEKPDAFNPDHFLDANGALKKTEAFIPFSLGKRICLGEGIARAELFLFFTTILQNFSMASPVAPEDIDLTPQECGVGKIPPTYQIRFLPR
# [12] = Brain tissue binding, equilibrium dialysis, mouse; conditions: 5 μM
# P-glycoprotein (MDR1) = assay: MDR1-MDCK permeability and P-gp substrate identification (bi-directional); format: in vitro ADME, canine; conditions: dog, MDCK-MDR1, pH 7.4; minus inhibitor (no cyclosporin A)
# Protocol: (§2) Cells were then incubated with HBSS at the desired pH in both apical and basolateral compartments for 40 min to stabilize physiological parameters.
# (§3) The fluorescent integrity marker lucifer yellow was also included in the dosing solution. […] Analytical standards were prepared from test compound DMSO dilutions and transferred to buffer, maintaining a 1% v/v DMSO concentration.
# (§4) For assessment of A-B permeability, HBSS was removed from the apical compartment and replaced with test compound dosing solution. […] For assessment of B-A permeability, HBSS was removed from the companion plate and replaced with test compound dosing solution. […] Test compound permeability was assessed in duplicate. Compounds of known permeability characteristics were run as controls on each assay plate. […] Cyprotex generic analytical conditions were used. The starting concentration (C0) was determined from the dosing solution and the experimental recovery calculated from C0 and both apical and basolateral compartment concentrations.
# (§5) The integrity of the monolayer throughout the experiment was checked by monitoring lucifer yellow permeation using fluorimetric analysis.
# MDR1-MDCK cells = assay: as above; format: in vitro ADME, canine; conditions: 10 μM, MDR1-MDCK, pH 7.4
# Protocol: as §2, §3, §4, §5
# CYP3A4 [13] = biological target: T3, CYP3A4; conditions: 0.1-25 μM, human liver microsomes, substrate midazolam
# hERG potassium channel = hERG potassium channel (Homo sapiens, UniProt Q12809); assay: hERG channel inhibition, IonWorks automated patch clamp, CHO-hERG cells; conditions: up to 25 micromolar
# hERG potassium channel, sequence (Q12809 whole entry): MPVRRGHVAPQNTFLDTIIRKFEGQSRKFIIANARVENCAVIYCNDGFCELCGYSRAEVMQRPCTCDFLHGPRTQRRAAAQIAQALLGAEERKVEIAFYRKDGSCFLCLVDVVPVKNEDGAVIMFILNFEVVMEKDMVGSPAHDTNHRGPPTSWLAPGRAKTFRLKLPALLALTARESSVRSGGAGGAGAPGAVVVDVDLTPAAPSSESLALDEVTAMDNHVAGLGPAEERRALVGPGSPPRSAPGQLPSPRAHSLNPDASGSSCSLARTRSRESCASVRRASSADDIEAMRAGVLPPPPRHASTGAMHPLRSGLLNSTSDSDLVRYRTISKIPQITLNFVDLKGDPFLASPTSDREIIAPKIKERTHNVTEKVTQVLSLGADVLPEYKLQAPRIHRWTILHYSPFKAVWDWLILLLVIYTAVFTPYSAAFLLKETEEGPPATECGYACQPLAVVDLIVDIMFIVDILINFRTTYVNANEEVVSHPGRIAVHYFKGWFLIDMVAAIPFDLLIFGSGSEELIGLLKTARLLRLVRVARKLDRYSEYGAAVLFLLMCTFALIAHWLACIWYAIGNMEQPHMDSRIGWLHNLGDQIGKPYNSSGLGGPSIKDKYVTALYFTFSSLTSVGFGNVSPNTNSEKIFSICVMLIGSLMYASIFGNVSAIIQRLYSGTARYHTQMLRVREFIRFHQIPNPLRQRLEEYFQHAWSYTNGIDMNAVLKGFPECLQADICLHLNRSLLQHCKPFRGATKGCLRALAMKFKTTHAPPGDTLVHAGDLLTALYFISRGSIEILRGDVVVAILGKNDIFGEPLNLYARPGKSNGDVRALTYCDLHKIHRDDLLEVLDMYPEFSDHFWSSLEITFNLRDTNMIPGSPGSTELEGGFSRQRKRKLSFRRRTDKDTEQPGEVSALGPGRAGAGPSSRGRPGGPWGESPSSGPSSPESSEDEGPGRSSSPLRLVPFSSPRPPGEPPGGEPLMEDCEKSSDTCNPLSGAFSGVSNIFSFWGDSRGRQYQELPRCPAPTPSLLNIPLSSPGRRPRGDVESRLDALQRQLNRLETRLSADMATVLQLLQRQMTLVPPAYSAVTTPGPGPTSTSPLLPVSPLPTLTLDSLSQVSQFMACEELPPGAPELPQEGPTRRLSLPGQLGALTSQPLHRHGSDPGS
# [14] = Toxicity in animal models; format: in vivo; conditions: many animal models, even at high concentrations
# [15] = tested on: L-DOPA induced dyskinesias; assay: L-DOPA induced dyskinesias, Primate in vivo model
# [16] = Caco-2 permeability (bi-directional); conditions: human, Caco-2, pH 6.8
# Caco-2 cells = assay: Caco-2 permeability (bi-directional); conditions: 10 μM, pH gradient (pH 6.8/7.4)
# [17] = tested on: L-dopa-induced dyskinesia; assay: L-dopa-induced dyskinesia, comparison with amantadine; format: in vivo; conditions: model not specified
# CYP2D6 = biological target: T4, CYP2D6 (Homo sapiens, UniProt P10635); assay: Time dependent inhibition of CYP2D6 (dextromethorphan; IC50 shift); format: in vitro ADME
# T4 construct: from tissue
# T4 sequence (P10635 whole entry): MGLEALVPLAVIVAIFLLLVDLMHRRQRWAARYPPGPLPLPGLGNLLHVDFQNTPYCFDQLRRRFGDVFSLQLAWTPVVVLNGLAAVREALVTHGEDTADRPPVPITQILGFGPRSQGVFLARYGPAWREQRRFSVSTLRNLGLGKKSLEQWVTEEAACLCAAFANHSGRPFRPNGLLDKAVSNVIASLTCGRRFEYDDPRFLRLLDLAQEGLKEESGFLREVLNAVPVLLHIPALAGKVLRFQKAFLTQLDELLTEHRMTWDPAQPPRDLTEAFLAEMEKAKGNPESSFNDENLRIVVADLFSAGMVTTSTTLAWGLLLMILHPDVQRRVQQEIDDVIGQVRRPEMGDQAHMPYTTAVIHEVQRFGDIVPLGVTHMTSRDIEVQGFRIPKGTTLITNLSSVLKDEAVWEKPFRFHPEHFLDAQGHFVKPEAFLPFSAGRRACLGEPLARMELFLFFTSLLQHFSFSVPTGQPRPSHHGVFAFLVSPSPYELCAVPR
# Protocol: Six test compound concentrations (0.1, 0.25, 1, 2.5, 10, 25 μM; final DMSO concentration 0.25%, final microsome concentration 0.5 mg/mL) were either pre-incubated for 30 min in the absence and presence of NADPH or undergo a 0 min pre-incubation. The probe substrate dextromethorphan (5 μM) and NADPH (1 mM) were then added (final DMSO concentration 0.3%) and the samples incubated for 5 min at 37° C. The selective time dependent CYP2D6 inhibitor, paroxetine, was screened alongside the test compounds as a positive control. The reactions were terminated by the addition of an aliquot of the incubation into methanol. The samples were centrifuged at 2500 rpm for 30 min at 4° C., and aliquots of the supernatant are diluted with formic acid in deionised water (final concentration 0.1%) containing internal standard prior to analysis of dextrorphan by LC-MS/MS.
# CYP3A4 [18] = conditions: human hepatocytes, 72 hr, any concentration tested
# CYP2C19 = CYP2C19 (Homo sapiens, UniProt P33261); assay: CYP2C19 inhibition, human liver microsomes (mephenytoin); conditions: up to 25 micromolar
# μ (MOP) (h) [19] = biological target: T1, μ (MOP) (h); assay: μ (MOP) (h) (agonist effect) cellular functional assay; format: cell-based
# Protocol: as §1
# μ (MOP) (h) [20] = biological target: T1, μ (MOP) (h); format: binding
# δ2 (DOP) (h) = δ2 (DOP) (h) (Homo sapiens, UniProt P41143); format: binding
# δ2 (DOP) (h), sequence (P41143 whole entry): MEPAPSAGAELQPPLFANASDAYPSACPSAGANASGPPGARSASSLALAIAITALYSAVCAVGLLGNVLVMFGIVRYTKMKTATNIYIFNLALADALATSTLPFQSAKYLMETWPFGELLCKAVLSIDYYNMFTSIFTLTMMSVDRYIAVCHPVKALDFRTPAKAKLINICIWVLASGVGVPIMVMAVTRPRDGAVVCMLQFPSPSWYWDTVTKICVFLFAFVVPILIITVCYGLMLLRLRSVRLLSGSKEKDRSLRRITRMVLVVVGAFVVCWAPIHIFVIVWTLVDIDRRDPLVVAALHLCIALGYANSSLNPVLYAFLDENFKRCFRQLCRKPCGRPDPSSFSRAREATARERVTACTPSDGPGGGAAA
# T1 sequence (P35372 whole entry): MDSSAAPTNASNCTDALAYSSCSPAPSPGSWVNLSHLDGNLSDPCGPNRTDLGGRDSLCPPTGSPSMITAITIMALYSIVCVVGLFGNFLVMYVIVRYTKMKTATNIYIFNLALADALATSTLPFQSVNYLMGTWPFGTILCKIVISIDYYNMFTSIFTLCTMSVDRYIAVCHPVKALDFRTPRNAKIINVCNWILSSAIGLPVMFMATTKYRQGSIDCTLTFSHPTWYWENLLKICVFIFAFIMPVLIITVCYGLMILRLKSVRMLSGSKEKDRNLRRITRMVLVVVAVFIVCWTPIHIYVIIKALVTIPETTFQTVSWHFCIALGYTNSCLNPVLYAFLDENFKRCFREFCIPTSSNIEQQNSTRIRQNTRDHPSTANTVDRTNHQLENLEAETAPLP
structure (smiles),measurement,setting,value
O=C(CCCCCCCBr)NC1CCN(CCc2ccccc2)CC1 [8-bromo-N-(1-phenethylpiperidin-4-yl)octanamide],nH,μ (MOP) (h) [1],0.4
same,IC50,α2B (h) [2],360 µM
same,Kb,α2B (h) [2],46 µM
same,IC50,α2B (h) [3],5.7 µM
same,Ki,α2B (h) [3],3.8 µM
same,nH,α2B (h) [3],0.8
same,nH,κ (KOP),0.5
"CCC(=O)NC1CCN(CCc2ccccc2)CC1 [HCV-3, N-(1-phenethylpiperidin-4-yl)propionamide]",CYP2B6 mRNA expression,CYP2B6 [4],"slight, yet statistically significant decrease"
same,CYP2C9 inhibition,CYP2C9,No significant inhibition
same,CYP1A2 inhibition,CYP1A2 [5],No significant inhibition
same,CYP2C8 inhibition,CYP2C8,No significant inhibition
same,CYP3A4 inhibition,CYP3A4 [6],No significant inhibition
same,CYP1A2 mRNA expression,CYP1A2 [7],didn't cause a statistically significant change
same,bioavailability,[8],highly bioavailable
same,inhibition of L-DOPA induced dyskinesias,[9],significant inhibition
same,binding to plasma proteins,[10],"weak, or no noticeable binding"
same,CYP2B6 inhibition,CYP2B6 [11],No significant inhibition
same,binding,[12],no binding at all could be detected
same,"efflux ratio at 60 min, 10 µM",P-glycoprotein (MDR1),1.48
same,permeability in the MDCK assay,MDR1-MDCK cells,highly permeable
same,CYP3A4 inhibition,CYP3A4 [13],No significant inhibition
same,hERG inhibition activity (conclusion),hERG potassium channel,weak or no significant hERG inhibition activity
same,toxicity,[14],virtually no toxicity
same,inhibition of L-DOPA induced dyskinesias,[15],significant inhibition
same,"efflux ratio at 120 min, 10 µM",[16],2.7
same,permeability in the Caco-2 assay,Caco-2 cells,highly permeable in both directions
same,effectiveness compared with amantadine,[17],significantly more effective than amantadine
same,CYP2D6 inhibition,"CYP2D6; 25 μM, 30 minute plus NADPH incubation",approximately 40%
same,time-dependent CYP2D6 inhibition (conclusion),"CYP2D6; IC50 shift, 30 min pre-incubation with/without NADPH",no evidence of time-dependent CYP2D6 inhibition
same,IC50 at 5 min,"CYP2D6; human, microsomes, probe dextromethorphan (5 µM), 0 minute incubation",> 25 µM
same,"inhibition at 5 min, 25 µM","CYP2D6; human, microsomes, probe dextromethorphan (5 µM), 25 μM, 0 minute incubation",~40%
same,CYP3A4 mRNA expression,CYP3A4 [18],didn't cause a statistically significant change
same,CYP2C19 IC50,CYP2C19,too weak to generate an IC50 value
CCC(=O)NC1CCN(CCC(=O)OC)CC1 [Methyl 3-(4-propionamidopiperidin-1-yl)propanoate],EC50,μ (MOP) (h) [19],290 µM
same,nH,μ (MOP) (h) [20],0.5
same,IC50,α2B (h) [3],260 µM
same,Ki,α2B (h) [3],180 µM
same,nH,α2B (h) [3],1
same,nH,κ (KOP),0.8
CCC(=O)NC1CCN(CCc2cccs2)CC1 [N-(1-(2-(thiophen-2-yl)ethyl)piperidin-4-yl)propionamide],nH,μ (MOP) (h) [1],0.6
same,IC50,α2B (h) [2],440 µM
same,Kb,α2B (h) [2],57 µM
same,IC50,α2B (h) [3],11 µM
same,Ki,α2B (h) [3],7.6 µM
same,nH,α2B (h) [3],1.2
same,nH,κ (KOP),0.6
same,nH,δ2 (DOP) (h),0.9
O=C(NC1CCN(CCc2ccccc2)CC1)c1ccccc1 [N-(1-phenethylpiperidin-4-yl)benzamide],IC50,α2B (h) [2],350 µM
same,Kb,α2B (h) [2],46 µM
same,nH,μ (MOP) (h) [20],0.9
same,IC50,α2B (h) [3],4 µM
same,Ki,α2B (h) [3],0.27 µM
same,nH,α2B (h) [3],1.3
same,nH,κ (KOP),0.6
same,nH,δ2 (DOP) (h),0.7
O=C(NC1CCN(CCc2ccccc2)CC1)c1ccco1 [N-(1-phenethylpiperidin-4-yl)furan-2-carboxamide],IC50,α2B (h) [2],380 µM
same,Kb,α2B (h) [2],50 µM
same,nH,μ (MOP) (h) [20],0.8
same,IC50,α2B (h) [3],4.6 µM
same,Ki,α2B (h) [3],3 µM
same,nH,α2B (h) [3],0.7
same,nH,κ (KOP),1.1
same,nH,δ2 (DOP) (h),1
O=C(NC1CCN(CCc2ccccc2)CC1)c1ccoc1 [N-(1-phenethylpiperidin-4-yl)furan-3-carboxamide],IC50,α2B (h) [2],230 µM
same,Kb,α2B (h) [2],50 µM
same,nH,μ (MOP) (h) [20],0.8
same,IC50,α2B (h) [3],3 µM
same,Ki,α2B (h) [3],3 µM
same,nH,α2B (h) [3],0.7
same,nH,κ (KOP),1.1
same,nH,δ2 (DOP) (h),1
